Reference: patent publication US10675260B2, “Methods and pharmaceutical compositions for preventing or treating immunoinflammatory dermal disorders” (TWi Biotechnology, Inc., priority 2017, dated 2020)

Columns and labels:
HaCaT cells = type: cell-based; conditions: 48 h, MTT
Experimental: HaCaT cells (CLS Cell Lines Service, Germany) were cultured in Dulbecco's modified eagle medium (DMEM) medium supplemented with 4.5 g/L glucose, 2 mM L-glutamine and 10% fetal bovine serum. Cells were seeded on 24- or 12-well plates and grown to 80% confluence for the following assays.
Exponentially growing cells of passage #3-6 (3000 cells/well in 100 μl medium) were plated in 96-well plates overnight to allow cell attachment (80% confluency) and then exposed to different concentrations of diacerein (0.1, 1, 10 μM) or berberine (0.1, 1, 10 μM) or clobetasol propionate (0.1, 1, 10 μM), and either 2 mg/mL of Healthy-IgG BP-IgG or Specific-IgG at 37° C. for 48 h.
Following drug treatment, the cell culture media were gently removed. Cells were then gently washed three times with warm medium to remove any de-attached and dead cells. Cells were incubated with MTT reagent in cell culture medium at a final concentration of 1.0 mg/mL for 2 h. The quantity of formazan (presumably directly proportional to the number of viable cells) was measured by recording changes in absorbance at 570 nm using an ELISA plate reader.

IL-6 = experiment: Pro-inflammatory cytokine measurement: IL-6 in culture supernatant by ELISA; type: cell-based, human; conditions: HaCaT cells treated with BP-IgG or specific anti-BP180 IgG 2 mg/mL; 0.1, 1, 10 μM; 48 h
Experimental: (§1) HaCaT cells (CLS Cell Lines Service, Germany) were cultured in Dulbecco's modified eagle medium (DMEM) medium supplemented with 4.5 g/L glucose, 2 mM L-glutamine and 10% fetal bovine serum. Cells were seeded on 24- or 12-well plates and grown to 80% confluence for the following assays. Cytokine measurement was conducted based on previous studies. Briefly, cells were incubated with medium alone or with 2 mg/mL purified BP-IgG or Specific-IgG and cultured in absence or presence of diacerein or berberine or clobetasol propionate (0.1, 1, and 10 μM) and culture supernatants were collected after 48 h of incubation, and stored for analysis at −20° C. IL-6 and IL-8 levels were analyzed in cell culture supernatants by ELISA (BD Biosciences) according to the manufacturer's instructions.

IL-8 = experiment: Pro-inflammatory cytokine measurement: IL-8 in culture supernatant by ELISA; type: cell-based, human; conditions: 48 h
Experimental: as §1

IL-6 mRNA = experiment: Quantitation of IL-6 mRNA expression by quantitative real-time PCR; type: cell-based, human; conditions: BP IgG-treated HaCaT cells; 0.1, 1, 10 μM; 48 h; RT-qPCR normalized to GAPDH
Experimental: (§2) IL-6 and IL-8 messenger RNA (mRNA) levels were quantitated using quantitative real-time polymerase chain reaction (qPCR) as reported previously. BP IgG-treated HaCaT cells were cultured with or without diacerein or berberine or clobetasol propionate for 48 h. Total RNA was isolated from cultured HaCaT cells using TRIzol reagent (LifeTechnologies) according to the manufacturer's instruction. Complementary DNA (cDNA) was reverse-transcribed from isolated RNA by incubating 1 μg of RNA with the RevertAid First Strand cDNA Synthesis Kit (Thermo Scientific) following the manufacturer's instructions. Quantitative RT-PCR was performed in a Mastercycler (Eppendorf) using SYBR® Select Master Mix (Life Technologies). PCR mixtures contained 0.5 μM of each forward and reverse primers. Each reaction mixture was subjected to 2 min at 50° C. and 2 min at 95° C. followed by 40 cycles with 15 seconds at 95° C. and 1 min at 60° C. Data were normalized to the housekeeping gene glyceraldehyde-3-phosphate dehydrogenase (GAPDH). The primers used in RT-PCR were as follows: IL-8 messenger RNA (mRNA), forward, 5′-ACCGGAAGGAACCATCTCAC-3′, and reverse, 5′-AAACTGCACCTTCACACAGAG-3′ and IL-6 messenger RNA (mRNA), forward, 5′-GGTACATCCTCGACGGCATCT-3′, and reverse, 5′-GTGCCTCTTTGCTGCTTTCAC-3′ and GAPDH, forward, 5′-ACAACTTTGGTATCGTGGAAGG-3′, and reverse, 5′-GCC ATC ACG CCA CAG TTT-3′.

IL-8 mRNA = experiment: Quantitation of IL-8 mRNA expression by quantitative real-time PCR; type: cell-based, human; conditions: BP IgG-treated HaCaT cells; 0.1, 1, 10 μM; 48 h; RT-qPCR normalized to GAPDH
Experimental: as §2

BP180 = experiment: Immunofluorescence study of BP180 internalization in keratinocytes treated with BP-IgG; type: cell-based, human; conditions: 0.1 to 10 μM, confocal microscopy
Experimental: For this BP180 internalization study, IgG purification from BP patients and cell culture treated with different IgG and drugs (diacerein or berberine) were performed according to the procedures described in Example 1. Keratinocytes grown on glass coverslips were fixed in 4% paraformaldehyde, washed thoroughly in PBS, and permeabilized in 0.1% (v/v) Triton X-100 in PBS for 10 minutes. Primary antibodies were overlaid onto the cells, and the preparations were incubated at room temperature for 1 hour. The cells on coverslips were washed with PBS, and fluorescence-conjugated secondary antibodies were applied for 1 hour at room temperature. After being washed with PBS, coverslips were mounted onto slides. The fluorescence color for cell nucleus was dark blue and BP180 was bright green. All preparations were examined by the confocal microscopy.

Structure (SMILES)	HaCaT viability in presence of IgG (HaCaT cells; 10 μM, with Healthy-IgG, BP-IgG or BP Specific-IgG)	HaCaT viability (HaCaT cells; treatment at 0.1-10 μM)	cytotoxicity to HaCaT cells (HaCaT cells; treatment at 0.1-10 μM)	secretion of IL-6 (IL-6)	secretion of IL-8 (IL-8; 0.1 μM, HaCaT cells treated with specific anti-BP180 IgG)	secretion of IL-8 (IL-8; 1 or 10 μM, HaCaT cells treated with specific anti-BP180 IgG)	IL-6 mRNA expression levels (IL-6 mRNA)	IL-8 mRNA expression levels (IL-8 mRNA)	membranous localization of BP180 (BP180 internalization) (BP180)	secretion of IL-8 (IL-8; HaCaT cells treated with BP-IgG or Specific-IgG 2 mg/mL, 0.1, 1, 10 μM)
CC(=O)Oc1cccc2c1C(=O)c1c(OC(C)=O)cc(C(=O)O)cc1C2=O [diacerein, 4,5-bis (acetyloxy) 9, 10-dihydro-4,5-dihydroxy-9, 10-dioxo-2-anthracenecarboxylic acid]	still significantly reduced HaCaT viability	50%	significant cytotoxicity	significantly reduced secretion of IL-6	did not reduce the secretion of IL-8	inhibitory effects of diacerein on IL-8 secretion were noted only at concentrations at 1 or 10 μM	dose-dependent inhibitory effects on IL-6 mRNA expression levels	inhibitory effects on IL-8 mRNA only at 10 μM	membranous localization of BP180 was restored	
COc1ccc2cc3[n+](cc2c1OC)CCc1cc2c(cc1-3)OCO2 [berberine, 5,6-dihydro-9,10-dimethoxybenzo(g)-1,3-benzodioxolo (5,6-a) quinolizinium]			did not have significant cytotoxicity							
CCC(=O)O[C@]1(C(=O)CCl)[C@@H](C)C[C@H]2[C@@H]3CCC4=CC(=O)C=C[C@]4(C)[C@@]3(F)[C@@H](O)C[C@@]21C [clobetasol propionate]			did not have significant cytotoxicity	reduced IL-6 (FIG. 1a) and IL-8 secretion (FIG. 1b) in a dose-dependent manner			significantly reduced the IL-6 and IL-8 mRNA expression levels	significantly reduced the IL-6 and IL-8 mRNA expression levels		reduced IL-6 (FIG. 1a) and IL-8 secretion (FIG. 1b) in a dose-dependent manner
